According to patent US9101576B2, “Treatment of inflammatory diseases” (The University of Chicago, priority 2006, dated 2015):

Assays:
[1] = tested on: medullary thymocytes; settings: cited from earlier work
[2] = tested on: B7-2 deficient NOD mice; experiment: Histological evaluation of inflammatory cell infiltration in sciatic nerve sections; format: in vivo, mouse; settings: 1.0 mg/kg; quantitative (p<0.02) and semi-quantitative (p<0.003) method; n=7
Procedure: (§1) Female B7-2 deficient NOD mice were used since they are more prone to develop SAP than their male counterparts (Salomon et al., supra). The mice were 7 months of age at the start of the study. Animals were given FTY720 (aqueous solution) at doses of 0.3 mg/kg or 1 mg/kg or vehicle alone by oral gavage once daily for 1 month. The concentrations were chosen based on dose-response studies with regard to the depletion of peripheral lymphocytes, and data from EAE studies in rats (Brinkmann et al., 2002; Fujino et al., 2003).
To further evaluate the effect of FTY720 on B7-2 deficient NOD mice, histological evaluation was performed to assess inflammatory cell infiltration. […] For quantitative method, tissue areas were measured by image analysis and the number of inflammatory cells counted at ×20 magnification. The results were averaged and expressed as cells per mm^2 tissue section. For semi-quantitative method, inflammation was graded as: 1, a few scattered mononuclear inflammatory cells often subperineurial; 2, perivenular cuffing with mononuclear inflammatory cells (one or two foci); 3, extensive multifocal perivenular cuffing and widespread endoneurial inflammation.

[3] = tested on: B7-2 deficient NOD mice; experiment: Electrophysiological studies of sciatic nerve function in vivo; set-up: species or system mouse; settings: FTY720 1 mg/kg oral gavage once daily for 1 month
Procedure: as §1
Electrophysiological studies were performed to assess the effect of FTY720 on sciatic nerve function in vivo in a subset of the study animals. […] FIG. 6 likewise illustrates that FTY720 treatment improves DL and CV (FIG. 6B, showing a summary of the results from experiments performed on 12 nerves from 6 water-treated mice and 14 nerves from 7 FTY720-treated mice) but not the amplitude of sciatic CMAPs (FIG. 6A).

[4] = tested on: B7-2 deficient NOD mice; experiment: Clinical scores and grip strength in spontaneous autoimmune polyneuropathy (SAP); format: in vivo, mouse
Procedure: as §1
To determine the effect of FTY720 on clinical scores and grip strength of B7-2 deficient NOD mice, both qualitative and quantitative assessment was performed by blinded lab personnel. For qualitative assessment, a nominal scale (with 0 as normal and 5 as death) described by other investigators (Zhu et al., 2001a) was used. For quantitative assessment, hindlimb and forelimb strength was measured with a grip strength meter (Columbus Instruments). […] Similar results were observed when forelimb and hindlimb strength was assessed quantitatively.

[5] = tested on: T cell; settings: cited from earlier work
[6] = tested on: lymphocyte; settings: cited from earlier work
[7] = tested on: peripheral blood lymphocyte; experiment: Induction of peripheral blood lymphopenia; format: in vivo, mouse
Procedure: as §1
The effectiveness of FTY720 was also monitored by the induction of peripheral blood lymphopenia. The peripheral blood lymphocyte count was decreased to 50-60% of vehicle-treated ones by FTY720 (0.3 mg/kg) (n=4) and to 25-30% by FTY720 (1 mg/kg) (n=3).

[8] = tested on: B7-2 deficient NOD mice; experiment: Demyelination and loss of myelinated fibers in epon sections; format: in vivo, mouse; settings: 1.0 mg/kg, p<0.015, n=7
Procedure: as §1
Epon sections were prepared from vehicle-treated mice (n=6) and mice treated with 1.0 mg/kg FTY720 (n=7). […] These differences were statistically different with a p value of less than 0.015. The percentage of loss of myelinated fibers in epon sections was assessed by a blinded observer using a grid. Demyelination was graded as follows: 1, isolated demyelinated axons perivascular or scattered; 2, many foci of perivascular demyelination; 3, extensive demyelination, perivascular and confluent.

[9] = tested on: S1P receptors; settings: transfected cells expressing individual S1P receptors; cited from earlier work
[10] = tested on: neonatal DRG-SC co-cultures; experiment: Myelination in neonatal DRG-SC co-cultures; format: cell-based
Text: TNF-α and IFN-γ (labeled as cytokines) acted synergistically to decrease cell viability via NOS induction and ceramide accumulation in immortalized SCs (FIG. 4) (Nagano et al., 2001). Neither cytokine alone induced cell death. These cytokines also exerted a synergistic inhibitory action on myelination in neonatal DRG-SC co-cultures, which is evident after 3 days of treatment.

## CCCCCCCOc1ccc(CC[C@@](C)(N)CO)cc1 [AAL(R)]
[1]
  time to downregulation of CD69: ≤ 2 h

## CCCCCCCCc1ccc(CCC(N)(CO)CO)cc1 [FTY720, 2-amino-2-[2-(4-octylphenyl)ethyl]-1,3-propanediol]
[2]
  inflammatory cell infiltration vs water-treated mice: decreased inflammatory cell infiltration
[3]; sciatic nerve, vehicle 2.59 ± 0.3, p < 0.02
  Distal Latency: 1.58 ± 0.3 ms
[3]; sciatic nerve, vehicle 14.7 ± 3.0, p < 0.01
  Conduction Velocity: 22.8 ± 3.2 m/s
[3]; vehicle 3.75 ± 1.8
  Amplitude of sciatic CMAPs: 3.8 ± 0.7 mV
[4]; 0.3 mg/kg oral once daily for 1 month, p less than 0.03, n=5
  difference in clinical score between 7 months and 8 months: statistically significant
[4]; 1.0 mg/kg oral once daily for 1 month, grip strength meter
  forelimb and hindlimb grip strength vs vehicle or 0.3 mg/kg: increased grip strength
[4]; 1.0 mg/kg oral once daily for 1 month, scale 0 normal to 5 death, n=10
  clinical scores, month 7 vs month 8: did not increase between month 7 and month 8
[5]
  T cell chemotactic activity: lacks T cell chemotactic activity
[6]
  concentration that elicits lymphocyte apoptosis: > 3 µM
[7]; 0.3 mg/kg oral once daily, n=4
  peripheral blood lymphocyte count, % of vehicle-treated: 50-60%
[7]; 1 mg/kg oral once daily, n=3
  peripheral blood lymphocyte count, % of vehicle-treated: 25-30%
[8]
  percentage of myelinated fibers lost vs vehicle: decrease in the percentage of myelinated fibers lost

## CCCCCCCCc1ccc(CC[C@](N)(CO)COP(=O)(O)O)cc1 [FTY720-P]
[9]
  agonist activity at S1P receptors: potent agonist of S1P receptors with the exception of S1P2

## CCCCCCCCCCCCC/C=C/[C@@H](O)[C@@H](N)COP(=O)(O)O [S1P, sphingosine 1-phosphate]
[5]; high concentrations are inhibitory
  concentration that elicits T cell chemotaxis: ≤ 0.1 µM

## IFN-γ: pro-inflammatory Th1 cytokine
[10]; IFN-γ at 50-300 U/ml alone
  effect on myelination: No effect on myelination

## TNF-α
[10]; TNF-α 10 ng/ml alone
  effect on myelination: No effect on myelination
[10]; TNF-α 100 ng/ml alone
  effect on myelination: modest inhibitory action
